From ChEMBL document CHEMBL1671861, “Preclinical evaluation of 1H-benzylindole derivatives as novel human immunodeficiency virus integrase strand transfer inhibitors” (Antimicrob Agents Chemother, 2008) come the findings set out here.

In data set [1] the test system is Human immunodeficiency virus 1. The experiment in a line: Antiretroviral activity against Human immunodeficiency virus 1 3B infected in human MT4 cells assessed as inhibition of virus-induced cytopathic effect by MTT assay. It is filed as functional, organism-based. A general note: Cytopathic effects are the visible damage that an infection or toxin causes in cultured cells.

For data set [2], the system named is Human immunodeficiency virus 1. The experiment in a line: Antiviral activity against Reverse transcriptase inhibitor-resistant Human immunodeficiency virus 1 infected in human MT4 cells assessed as inhibition of virus-induced cytopathic effect by MTT assay. To be noted: Human immunodeficiency virus 1, MT4. It is filed as functional, organism-based.
The test system of data set [3] is Human immunodeficiency virus 1. The experiment in a line: Antiviral activity against non nucleoside reverse transcriptase inhibitor-resistant Human immunodeficiency virus 1 infected in human MT4 cells assessed as inhibition of virus-induced cytopathic effect by MTT assay. It is filed as functional, organism-based. The note with it: Human immunodeficiency virus 1, MT4.

Data set [4] concerns Human immunodeficiency virus 2. The experiment in a line: Antiretroviral activity against Human immunodeficiency virus 2 EHO infected in human MT4 cells assessed as inhibition of virus-induced cytopathic effect by MTT assay. Format: functional, organism-based.
In data set [5] the test system is Human immunodeficiency virus 2. The experiment in a line: Antiretroviral activity against Human immunodeficiency virus 2 ROD infected in human MT4 cells assessed as inhibition of virus-induced cytopathic effect by MTT assay. Format: functional, organism-based. The note with it: Human immunodeficiency virus 2, ISOLATE ROD.
The test system of data set [6] is Simian immunodeficiency virus. The experiment in a line: Antiretroviral activity against Simian immunodeficiency virus MAC 251 infected in human MT4 cells assessed as inhibition of virus-induced cytopathic effect by MTT assay. The note with it: MAC 251, MT4. Format: functional, organism-based.
For data set [7], the system named is Human immunodeficiency virus 1. The experiment in a line: Antiretroviral activity against Human immunodeficiency virus 1 NL4.3 infected in human MT4 cells assessed as inhibition of virus-induced cytopathic effect by MTT assay. Format: functional, organism-based. The note with it: Human immunodeficiency virus 1, NL4.3, MT4.
Data set [8] concerns Human immunodeficiency virus 1. The experiment in a line: Antiviral activity against Protease inhibitor-resistant Human immunodeficiency virus 1 infected in human MT4 cells assessed as inhibition of virus-induced cytopathic effect by MTT assay. To be noted: Human immunodeficiency virus 1, MT4. It is filed as functional, organism-based.
Data set [9] can be described thus: Selectivity index, ratio of CC50 for human MT4 cells to EC50 for Human immunodeficiency virus 1 3B. The note with it: read-out: Ratio CC50/EC50. It is filed as toxicity, cell-based.
Data set [10] in a line: Cytotoxicity against human MT4 cells by MTT assay. Format: cell-based. In general terms: Tetrazolium dyes change colour on reduction, which living cells bring about.
The test system of data set [11] is Human immunodeficiency virus 1. The experiment in a line: Antiviral activity against Human immunodeficiency virus 1 3B infected in human MT4 cells assessed as inhibition of viral replication. It is filed as functional, organism-based.
A short description of data set [12]: Intrinsic clearance in human liver microsome. It is filed as ADME. The note with it: liver microsomes. For orientation: Microsomes from liver hold many membrane-bound enzymes, among them those of drug oxidation.
In data set [13] the test system is Human immunodeficiency virus 1. The experiment in a line: Antiviral activity against Human immunodeficiency virus 1 infected in 293T cells assessed as increase in amount of 2-LTR circles by Q-PCR in presence of 12.2 uM CHI/1043. Format: functional, organism-based.
In data set [14] the test system is Human immunodeficiency virus 1. The experiment in a line: Antiviral activity against Human immunodeficiency virus 1 infected in 293T cells assessed as inhibition of early cDNA synthesis by Lentiviral vector transduction assay. Format: functional, organism-based.
For data set [15], the target named is T1, Human immunodeficiency virus type 1 integrase (Human immunodeficiency virus 1, UniProt Q7ZJM1). The experiment in a line: Inhibition of Human immunodeficiency virus 1 integrase.
T1 sequence (Q7ZJM1 whole entry): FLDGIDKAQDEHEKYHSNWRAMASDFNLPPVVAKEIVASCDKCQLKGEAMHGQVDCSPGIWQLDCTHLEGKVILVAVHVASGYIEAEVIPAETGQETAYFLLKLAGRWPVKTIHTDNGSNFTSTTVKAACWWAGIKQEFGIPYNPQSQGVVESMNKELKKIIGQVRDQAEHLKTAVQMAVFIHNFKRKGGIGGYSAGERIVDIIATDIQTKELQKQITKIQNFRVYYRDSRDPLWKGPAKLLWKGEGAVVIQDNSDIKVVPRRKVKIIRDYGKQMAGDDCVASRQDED
The test system of data set [16] is Human immunodeficiency virus 1. The experiment in a line: Antiviral activity against Human immunodeficiency virus 1 infected in 293T cells assessed as integrated proximal DNA by Q-PCR. It is filed as functional, organism-based.
Data set [17] has as its system Human immunodeficiency virus 1. The experiment in a line: Antiviral activity against X4 tropic Human immunodeficiency virus 1 3B infected in PMBC. Format: functional, organism-based.
Data set [18] deals with Human immunodeficiency virus 1. The experiment in a line: Ratio of EC50 for Human immunodeficiency virus 1 3B after 70 passages to EC50 for wild-type Human immunodeficiency virus 1 3B. Format: functional.
Data set [19] can be described thus: Apparent permeability from apical to basolateral side of human Caco2 cells. It is filed as ADME, cell-based. The note with it: Caco-2.
Data set [20] deals with Human immunodeficiency virus 1. The experiment in a line: Antiviral activity against Human immunodeficiency virus 1 during lentiviral transduction process assessed as inhibition of early cDNA synthesis by Lentiviral vector transduction assay. Format: functional, organism-based.
Data set [21] concerns Human immunodeficiency virus 1. The experiment in a line: Antiviral activity against R5 tropic Human immunodeficiency virus 1 BAL infected in PMBC. Format: functional, organism-based.
Data set [22] has as its target T1, Human immunodeficiency virus type 1 integrase. The experiment in a line: Inhibition of Human immunodeficiency virus 1 integrase strand transfer activity.

The structures appear in SMILES notation. Activity calls are given as the source filed them. The calls are words filed in the database; no cut-off is given here.

A word on the EC50: it is the midpoint of the concentration-response curve. Regarding `Cc1cn([C@H]2C[C@H](N=[N+]=[N-])[C@@H](CO)O2)c(=O)[nH]c1=O` [ZIDOVUDINE], the EC50 in data set [1] was determined as 27 nM; in data set [2], 200 nM; in data set [3], 20 nM; in data set [4], 56 nM; in data set [5], 67 nM; in data set [6], 11 nM. Also, the EC50 in data set [7] was 21 nM; in data set [8], 26 nM.
As to `COc1cccc2c(C(=O)/C=C(\O)C(=O)O)cn(Cc3ccc(F)cc3)c12`, the selectivity ratio in data set [9] was 12.
Same read-out and setting: then `CCOC(=O)/C(O)=C/C(=O)c1cn(Cc2ccc(F)cc2)c2cccc(OC)c12`, with 24.
As to `O=C1Nc2ccc(Cl)cc2[C@@](C#CC2CC2)(C(F)(F)F)O1` [EFAVIRENZ], the 50% effective concentration (EC50) in data set [4], in data set [5] and in data set [6] was > 31700 nM in each case.
With `COc1ccc2c(c1)c(C(=O)/C=C(\O)C(=O)O)cn2Cc1ccc(F)cc1`, the selectivity ratio in data set [9] amounted to 12.
Regarding `CCOC(=O)/C(O)=C/C(=O)c1cn(Cc2ccc(F)cc2)c2c(OC)cccc12`, the selectivity ratio in data set [9] is 1.
Turning to `COc1ccc(OC)c2c1c(C(=O)/C=C(\O)C(=O)O)cn2Cc1ccc(F)cc1`, the selectivity ratio in data set [9] was found to be 100.
By CC50 is commonly meant the concentration that lowers cell viability or growth by half. The low end stands for greater toxicity to the cells, the high end for lower toxicity to the cells. Regarding `O=C(O)C(=O)CC(=O)c1cc(OCc2ccccc2)cc(OCc2ccccc2)c1`, the EC50 in data set [1] was determined as 12400 nM; in data set [2] it was 7200 nM; in [3], 19300 nM; in data set [5], 62100 nM; in [6], 22600 nM; in data set [7] it was 24500 nM. Also, the EC50 amounted to 12400 nM in [11] and 7400 nM in data set [8]. Further, the selectivity ratio in [9] was 5. In addition, the cytotoxic concentration (CC50) in [10] is 62000 nM.
Take `COc1cc2c(cc1Cc1cccc(Cl)c1F)c(=O)c(C(=O)O)cn2[C@H](CO)C(C)C`: in data set [11], the concentration for a half-maximal effect (EC50) was 0.83 nM.
As to `CCOC(=O)/C(O)=C/C(=O)c1cn(Cc2ccc(F)cc2)c2cc(OC)ccc12`, in [9], the selectivity ratio was < 1.
The microsomal CLint is the capacity of the preparation to metabolise the compound, expressed as a volume cleared per time. Low values mean slow turnover, high ones rapid turnover. The term IC50 denotes the midpoint of a concentration-inhibition curve. A low value points to inhibition by little substance. One may read the Papp A→B as the apparent permeability from the apical to the basolateral side of a cell layer. In data set [12], `COc1cccc2c1c(C(=O)/C=C(\O)C(=O)O)cn2Cc1ccc(F)cc1` came in with an intrinsic clearance (microsomal CLint) of 11 µL/min/mg. Moreover, the inhibition result in data set [13], in data set [16] and in data set [20] was “inactive” throughout. Also, the inhibition result in data set [14] is “Active”. The concentration giving a half-maximal response (EC50) turned out to be 600 nM in data set [1]; 860 nM in [2]; 300 nM in [17]; 840 nM in data set [3]; 1760 nM in [4]; 2110 nM in data set [5]. The EC50 in [6] came to 4760 nM; in data set [7] it was 730 nM; in [11] it was 600 nM; in data set [21], 300 nM; in data set [8] it was 680 nM. Besides, half-maximal inhibition in data set [15] (IC50) was put at 110 nM. Besides, the “Ratio EC50” value in data set [18] was >40. In addition, in data set [9], the selectivity ratio is 69.8. In data set [19], the Papp A→B amounted to 5.5 ×10⁻⁶ cm/s.
Take `CCOC(=O)/C(O)=C/C(=O)c1cn(Cc2ccc(F)cc2)c2ccc(OC)cc12`: in data set [9], the selectivity ratio stood at 11.
Consider `O=C(O)/C(O)=C/C(=O)c1cn(Cc2ccccc2)c2ccccc12`, for which the IC50 in data set [22] was 2330 nM; in data set [15] it was 860 nM. The selectivity ratio in [9] turned out to be 8. Half-maximal cytotoxicity in data set [10] (CC50) was put at 64100 nM. Besides, in data set [11], the concentration for a half-maximal effect (EC50) was 8350 nM.
For the compound `COc1ccc2c(C(=O)/C=C(\O)C(=O)O)cn(Cc3ccc(F)cc3)c2c1`, the selectivity ratio in data set [9] was determined as 8.
As to `Cc1nnc(C(=O)NC(C)(C)c2nc(C(=O)NCc3ccc(F)cc3)c(O)c(=O)n2C)o1`, the EC50 in [11] was 1.4 nM.
As to `Cc1c(O)cccc1C(=O)N[C@@H](CSc1ccccc1)[C@H](O)CN1C[C@H]2CCCC[C@H]2C[C@H]1C(=O)NC(C)(C)C`, the concentration giving a half-maximal response (EC50) was determined as 28 nM in data set [1]; 29 nM in data set [2]; 35 nM in data set [3]; 49 nM in data set [4]; 50 nM in data set [5]; 50 nM in data set [6]. In addition, the values for the EC50 in data set [7] and in data set [8] were 23 nM and 170 nM, respectively.
Consider `O=C(NCc1ccc(F)cc1)c1nc(N2CCCCS2(=O)=O)c2cccnc2c1O`, for which the half-maximal inhibitory concentration (IC50) came out at 7 nM in data set [22] and 2.3 nM in data set [15]. The selectivity ratio in data set [9] was 460. Besides, the midpoint of cytotoxicity in data set [10], the CC50, lay at 2250 nM. Also, the concentration giving a half-maximal response (EC50) in data set [11] came to 4.9 nM.
As to `CCOC(=O)/C(O)=C/C(=O)c1cn(Cc2ccc(F)cc2)c2c(OC)ccc(OC)c12`, the selectivity ratio in data set [9] is 20.
